Reference: article PMC9503459, “Antifungal Activity, Structural Stability, and Immunomodulatory Effects on Human Immune Cells of Defensin from the Lentil Lens culinaris” (Membranes, 2022)
No end group written: not given here.

Tested on: clinical isolate of Candida albicans (v47a3)
Assay: Antifungal microdilution assay, C. albicans
Format: cell-based
Conditions: 24 h; for inhibition of the growth: C. albicans
Method: The clinical isolates of Candida albicans (v47a3), C. krusei (225/2) and C. glabrata (252/2) were collected from patients with human immunodeficiency virus (HIV) infection and provided by G.N. Gabrichevsky Research Institute for Epidemiology and Microbiology (Moscow, Russia). Strains stocks were kept at −70 ℃ in 10% nonfat milk with 10% glycerol.
Antifungal susceptibility tests were performed by the microdilution method using 96-well microplates. Yeast cells in stock were inoculated onto modified YPD (yeast extract 5 g/L, peptone 10 g/L, glucose 10 g/L) agar plates, and incubated for 24 h at 37 ℃. After replating, cells were cultured in modified YPD broth at 37 ℃ to optical density 1.0 at 540 nm. Further, yeast cells in modified YPD broth at concentration of 5 × 10^4 cells/mL were mixed with equal volumes of serial two-fold dilutions of the peptide in water which started at the highest peptide concentration of 200 µM. Final peptide concentrations in the wells were 100, 50, 25, 12.5, 6.25, 3.125, and 1.56 μM. Controls without defensin were also tested. Plates were incubated at 30 ℃ during 24 h. Yeast growth was estimated using inverted microscope as well as by measuring the optical density at 540 nm. Percentage of growth inhibition was defined as: growth inhibition (%) = ((Acontrol − Asample)/Acontrol) × 100%. All of the experiments were performed twice in triplicate. The t-test was performed to study the statistical difference (p-value) between the means of controls and samples with different peptide concentrations. The experiment with lentil Lens culinaris lipid transfer protein Lc-LTP2 was carried out for comparison.

Substance: Lc-def: defensin from lentil Lens culinaris seeds (UniProt:B3F051), recombinant, overexpressed in Escherichia coli (KTCENLSDSFKGPCIPDGNCNKHCKEKEHLLSGRCRDDFRCWCTRNC; disulfide (positions not given here); ends not checked; also: disulfide bonds present, pairing not given here; UniProt B3F051 28-74, looked up)
- IC50 (C. albicans clinical isolate, microdilution, modified YPD, 30 °C, OD540, twice in triplicate, read-out: concentration causing 50% growth inhibition): 25 to 50 µM
- inhibition of the growth (50 μM peptide): approximately 80%
- inhibition of the growth (100 μM peptide): < 100%
